How the values were obtained:
Format in all cases: in vivo
[1] = tested on: Digitaria sanguinalis (DIGSA); assay: C. Herbicidal pre-emergence efficacy, DIGSA; details: scored after about 3 weeks
In short: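 Pre-emergence test: formulated compounds sprayed as aqueous suspension or emulsion with 0.5% additive at 600 l/ha onto soil covering sown seeds, at rates corresponding to 320 g/ha or less. After about 3 weeks in greenhouse, efficacy scored visually as percent versus untreated controls (100% = plants dead).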

[2] = tested on: Amaranthus retroflexus (AMARE); assay: E. Herbicidal post-emergence efficacy, AMARE
In short: (§1)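 Visual scoring against untreated plants was done roughly 3 weeks after spraying (0% = no effect, 100% = plants dead). Spray application at 320 g/ha or lower, 600 l/ha water with 0.5% additive, was made onto green parts of one-leaf-stage greenhouse plants grown 2-3 weeks in sandy loam.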

Setaria viridis (SETVI) = assay: E. Herbicidal post-emergence efficacy, SETVI
Method: Seeds of monocotyledonous and dicotyledonous weeds and crop plants were placed in sandy loam in plastic or organic planting pots, covered with soil and cultivated in a greenhouse under controlled growth conditions. 2 to 3 weeks after sowing, the test plants were treated at the one-leaf stage. The compounds of the invention, formulated in the form of wettable powders (WP) or as emulsion concentrates (EC), were then sprayed onto the green parts of the plants as aqueous suspension or emulsion with addition of 0.5% additive at a water application rate of 600 l/ha (converted). After the test plants had been kept in the greenhouse under optimum growth conditions for about 3 weeks, the activity of the preparations was rated visually in comparison to untreated controls.
For example, • 100% efficacy=plants have died, • 0% action=like untreated control plants.
Tables E1a to E12b below show the effects of selected compounds of the general formula (I) according to table 1 on various harmful plants at an application rate corresponding to 320 g/ha or less, which were obtained by the experimental procedure mentioned above.

Lolium rigidum (LOLRI) = assay: A. Herbicidal pre-emergence efficacy, LOLRI
In short: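 Applied before emergence onto covering soil at rates of 1280 g/ha or less, using 600 L/ha spray water with 0.5% additive. Scoring: visual % efficacy after ~3 weeks, greenhouse.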

Veronica persica (VERPE) = assay: E. Herbicidal post-emergence efficacy, VERPE
In short: as §1

[3] = tested on: Abutilon theophrasti (ABUTH); assay: E. Herbicidal post-emergence efficacy, ABUTH
In short: as §1

[4] = tested on: Amaranthus retroflexus (AMARE); assay: B. Herbicidal post-emergence efficacy, AMARE
In short: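 Post-emergence greenhouse test: one-leaf-stage plants, compound (WP/EC, +0.5% additive, 600 L/ha water, ≤1280 g/ha) applied to green parts; % efficacy scored visually vs untreated after ~3 wk; 100% = plants died.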

Kochia scoparia (KCHSC) = assay: E. Herbicidal post-emergence efficacy, KCHSC
In short: as §1

Compound	Pre-emergence efficacy against DIGSA ([1]; 80 g/ha)	Pre-emergence efficacy against DIGSA ([1]; 320 g/ha)	Post-emergence efficacy against AMARE in % ([2]; application rate 80 g/ha)	Post-emergence efficacy against AMARE in % ([2]; application rate 320 g/ha)	Post-emergence efficacy against SETVI in % (Setaria viridis (SETVI); application rate 80 g/ha)	Post-emergence efficacy against SETVI in % (Setaria viridis (SETVI); application rate 320 g/ha)	Pre-emergence efficacy against LOLRI (Lolium rigidum (LOLRI); dosage 1280 g/ha)	Post-emergence efficacy against VERPE in % (Veronica persica (VERPE); application rate 80 g/ha)	Post-emergence efficacy against VERPE in % (Veronica persica (VERPE); application rate 320 g/ha)	Post-emergence efficacy against ABUTH in % ([3]; application rate 320 g/ha)	Post-emergence efficacy against AMARE ([4]; 80 g/ha)	Post-emergence efficacy against AMARE ([4]; 320 g/ha)	Post-emergence efficacy against AMARE ([4]; 1280 g/ha)	Pre-emergence efficacy against LOLRI (Lolium rigidum (LOLRI); dosage 320 g/ha)	Post-emergence efficacy against ABUTH in % ([3]; application rate 80 g/ha)	Post-emergence efficacy against KCHSC in % (Kochia scoparia (KCHSC); application rate 80 g/ha)	Post-emergence efficacy against KCHSC in % (Kochia scoparia (KCHSC); application rate 320 g/ha)
O=S(=O)(CCCCCl)Oc1ccccc1Oc1ncc(Cl)cn1 [Example I-15]	100%	100%	100%	100%	80%	100%	90%	90%	100%	80%	100%	100%	100%				
Cc1cccc(Oc2ncc(Cl)cn2)c1OS(=O)(=O)CCCC(F)(F)F [Example I-28, 2-[(5-Chloropyrimidin-2-yl)oxy]-6-methylphenyl 4,4,4-trifluorobutane-1-sulfonate]							100%					90%	100%	90%			
O=S(=O)(CCCC(F)(F)F)Oc1ccccc1Oc1ncc(Cl)cn1 [Example I-10]	100%	100%	100%	100%	100%	100%	90%	100%	100%	100%	90%	90%	100%	90%	90%		
O=S(=O)(CCCC(F)(F)F)Oc1c(F)cccc1Oc1ncc(F)cn1 [Example I-42]	100%	100%	100%	100%	100%	100%	100%	100%	100%	100%				100%	80%	90%	90%
O=S(=O)(CCCC(F)(F)F)Oc1c(Br)cccc1Oc1ncc(Cl)cn1 [Example I-30]							100%				100%	100%	100%	90%			
O=S(=O)(CC1CC1(Cl)Cl)Oc1c(F)cccc1Oc1ncc(Cl)cn1 (stereo not shown) [Example I-57]							100%				90%	90%	90%				
CCCCS(=O)(=O)Oc1ccccc1Oc1ncc(Cl)cn1 [Example I-6]	100%	100%	90%	100%	90%	100%	90%	90%	90%	90%	90%	100%	100%	90%	80%		
Cc1cccc(Oc2ncc(Cl)cn2)c1OS(=O)(=O)CCC(F)(F)F [Example I-29]							100%				90%	100%	100%	100%			
O=S(=O)(CCCCl)Oc1ccccc1Oc1ncc(F)cn1 [Example I-5]			100%	100%	90%	100%		90%	100%	90%	100%	100%	100%				
O=S(=O)(CCC(F)(F)F)Oc1c(F)cccc1Oc1ncc(F)cn1 [Example I-47]	100%	100%	100%	100%		100%	100%	100%	100%	100%				100%		100%	100%
CC(C)CS(=O)(=O)Oc1ccccc1Oc1ncc(Cl)cn1 [Example I-7, [2-(5-Chloropyrimidin-2-yl)oxyphenyl] 2-methylpropane-1-sulfonate]	100%	100%	90%	100%	90%	100%	90%	90%	100%	100%		90%	90%				
O=S(=O)(CCCCl)Oc1c(F)cccc1Oc1ncc(Cl)cn1 [Example I-14]			100%	100%	100%	100%	100%	100%	100%	90%	100%	100%	100%	100%			
